Bounds are passed on as bounds.

Consider three compounds from ChEMBL document CHEMBL1150286, “Discovery and optimization of triazolopyridazines as potent and selective inhibitors of the c-Met kinase” (J Med Chem, 2008).

Series [1] in a line: Clearance in rat liver microsomes. It is filed as ADME, Microsome.
Series [2] is described as follows: Half life in Sprague-Dawley rat at 0.25 mg/kg, iv. Type of series: ADME, organism-based. Further details: dose 0.25 mg/kg, route intravenous. As to conditions: in vivo.
The nature of series [3]: Clearance in Sprague-Dawley rat at 0.25 mg/kg, iv. It is filed as ADME, organism-based. Further details: dose 0.25 mg/kg, route intravenous. As to conditions: in vivo.
Series [4] in a line: Bioavailability in Sprague-Dawley rat at 2 mg/kg, po. It is filed as ADME, organism-based. As to conditions: in vivo.
The nature of series [5]: Clearance in mouse liver microsomes. It is filed as ADME, Microsome. A general note: Microsomes from liver hold many membrane-bound enzymes, among them those of drug oxidation.
A short description of series [6]: Volume of distribution in steady state in Sprague-Dawley rat at 0.25 mg/kg, iv. Type of series: ADME, organism-based. Also noted: dose 0.25 mg/kg, route intravenous. As to conditions: in vivo, read-out: Vdss.
Series [7] can be described thus: AUC (0 to infinity) in Sprague-Dawley rat at 2 mg/kg, po. It is filed as ADME, organism-based. Further details: time infinity, dose 2 mg/kg, route oral. As to conditions: plasma.
A further series concerns Mus musculus. Put plainly: Inhibition of HGF-mediated c-Met phosphorylation in orally dosed mouse liver. Type of series: functional. As to conditions: po.
The target of series [8] is Mast/stem cell growth factor receptor Kit (Homo sapiens) (UniProt P10721). As to the kind of experiment: Inhibition of cKit.
A short description of series [9]: Inhibition of PKAalpha.
In series [10] the target is Mitogen-activated protein kinase 9 (Homo sapiens) (UniProt P45984). Put plainly: Inhibition of JNK2.
The nature of series [11]: Drug level in orally dosed mouse plasma after 6 hrs. Type of series: ADME, organism-based. As to conditions: po.
In series [12] the target is Ribosomal protein S6 kinase alpha-5 (Homo sapiens) (UniProt O75582). As to the kind of experiment: Inhibition of Msk1.
Series [13] has as its target Tyrosine-protein kinase BTK (Homo sapiens) (UniProt Q06187). As to the kind of experiment: Inhibition of Btk.
In series [14] the target is T1, Hepatocyte growth factor receptor (Homo sapiens, UniProt P08581). As to the kind of experiment: Inhibition of c-Met by HTRF assay.
The target in series [15] is RAC-alpha serine/threonine-protein kinase (Homo sapiens) (UniProt P31749). Put plainly: Inhibition of PKBalpha.
The target of series [16] is Angiopoietin-1 receptor (Homo sapiens) (UniProt Q02763). As to the kind of experiment: Inhibition of Tie2.
In series [17] the target is T1, Hepatocyte growth factor receptor.
Description: Inhibition of HGF-mediated c-Met phosphorylation in serum-starved human PC2 cells
The target of series [18] is Tyrosine-protein kinase Lck (Homo sapiens) (UniProt P06239). Put plainly: Inhibition of Lck.
The target of series [19] is Tyrosine-protein kinase ABL1 (Homo sapiens) (UniProt P00519). Put plainly: Inhibition of Abl.
For series [20], the target named is Mitogen-activated protein kinase 3 (Homo sapiens) (UniProt P27361). As to the kind of experiment: Inhibition of Erk1.
Series [21] addresses Proto-oncogene tyrosine-protein kinase Src (Homo sapiens) (UniProt P12931). Put plainly: Inhibition of Src.
Series [22] has as its target Cyclin-dependent kinase 5 (Homo sapiens) (UniProt Q00535). As to the kind of experiment: Inhibition of CDK5.
For series [23], the target named is Insulin-like growth factor 1 receptor (Homo sapiens) (UniProt P08069). As to the kind of experiment: Inhibition of IGF1R.
The target in series [24] is Aurora kinase A (Homo sapiens) (UniProt O14965). As to the kind of experiment: Inhibition of Aur2.
Series [25] concerns the target Vascular endothelial growth factor receptor 2 (Homo sapiens) (UniProt P35968). As to the kind of experiment: Inhibition of KDR.
For series [26], the target named is Tyrosine-protein kinase JAK2 (Homo sapiens) (UniProt O60674). As to the kind of experiment: Inhibition of Jak2.
The nature of series [27]: Inhibition of p38.
Series [28] is described as follows: Half life in Sprague-Dawley rat at 0.5 mg/kg, iv. Type of series: ADME, organism-based. Further details: dose 0.5 mg/kg, route intravenous. As to conditions: in vivo.
Series [29] can be described thus: Volume of distribution in steady state in Sprague-Dawley rat at 0.5 mg/kg, iv. It is filed as ADME, organism-based. Further details: dose 0.5 mg/kg, route intravenous. As to conditions: in vivo, read-out: Vdss.
Series [30] in a line: Clearance in Sprague-Dawley rat at 0.5 mg/kg, iv. Type of series: ADME, organism-based. Also noted: dose 0.5 mg/kg, route intravenous. As to conditions: in vivo.

The microsomal CLint is a measure of how fast metabolising enzymes remove a compound, apart from limits set by blood flow. Read a high microsomal CLint as faster metabolism. What is called half-life is how long it takes for the measured level to halve. A low value points to rapid decline. The term clearance denotes a measure of how efficiently the substance is removed, as volume per time. Low values mean inefficient removal, high ones efficient removal. What is called bioavailability is dose-corrected exposure relative to a reference, in per cent. Read a low bioavailability as little systemic uptake. The term AUC(0-inf) denotes the area under the concentration-time curve extrapolated to infinity. A higher AUC(0-inf) goes with more exposure. On to `COc1ccc2c(OCc3nnc4ccc(-c5cc(C)ns5)nn34)ccnc2c1`, for which the microsomal CLint in [1] worked out at 420 µL/min/mg; in [5], 173 µL/min/mg. Moreover, the half-life in series [2] was 2.58 h. Further, in series [3], the clearance is 4 mL/min/kg. This compound came in with a bioavailability in series [4] of 59%. In [6], the Vd stood at 0.35 L/kg. Moreover, the area under the curve AUC(0-inf) in series [7] was found to be 5100 ng·h/mL.
The term IC50 denotes the midpoint of a concentration-inhibition curve. Low values mean greater potency, high ones weaker potency. `COc1ccc2c(OCc3nnc4ccc(-c5cc(F)c(F)c(F)c5)nn34)ccnc2c1` came in with an ED90 in the series with Mus musculus of 30 mg/kg. For the same compound, the Activity in [8], in series [9], in series [10], in [12], in series [13] and in [15] was more than 10 µM in each case. Also, the Activity in [16], in series [18], in series [19], in series [20], in series [21] and in series [22] was more than 10 µM each time. Besides, the Activity in series [23], in series [24], in [25], in series [26] and in [27] was more than 10 µM throughout. Besides, the concentration at 6 h in series [11] was found to be 6.7 µM. The IC50 in series [14] stood at 4 nM; in series [17] it was 7 nM. Moreover, the intrinsic clearance (microsomal CLint) in [1] turned out to be 190 µL/min/mg; in [5], 156 µL/min/mg. The compound further showed a half-life in [2] of 3.5 h. Further, the clearance in series [3] is 0.967 mL/min/kg. The same compound registered a bioavailability in series [4] of 22%. In series [6], the Vd is 0.152 L/kg. The same compound gave an AUC(0-inf) in series [7] of 7840 ng·h/mL.
Compound `COc1ccc2c(OCc3nnc4ccc(-c5ccccc5)nn34)ccnc2c1` [AMG-208] gave a half-life in series [28] of 1 h. In addition, the Vd in series [29] is 0.38 L/kg. For the same compound, the microsomal CLint in series [1] amounted to 131 µL/min/mg; in series [5], 122 µL/min/mg. In [17], this compound yielded an IC50 of 46 nM. In [30], the clearance was 6.17 mL/min/kg. Moreover, the bioavailability in series [4] is 43%. The compound further gave a total exposure AUC(0-inf) in series [7] of 2520 ng·h/mL.
